Reference: paper PMC3174232, “Identification of a Negative Allosteric Site on Human α4β2 and α3β4 Neuronal Nicotinic Acetylcholine Receptors” (PLoS ONE, 2011)
Like-named read-outs stand apart in the source and are kept apart here.

Tests used:
[1] = molecular target: recombinant hα4β2 receptors; set-up: method as in PMID 8996215, PMID 11044726, PMID 9454827; settings: read-out: expt. potency, EC50, cited from earlier work
[2] = molecular target: recombinant hα3β4 receptors; set-up: method as in PMID 8996215, PMID 11044726, PMID 9454827; settings: read-out: expt. potency, EC50, cited from earlier work
hα4β2WT nAChRs = molecular target: T1, hα4β2WT nAChRs (Homo sapiens, UniProt P17787+P43681); assay: Calcium accumulation assay, HEK ts201 cells transiently expressing wild-type hα4β2 nAChRs; format: cell-based
T1 construct: Human nAChR α4 and β2 full-length cDNAs in the vector pSP64 (poly A); expressed in transfected cells; host or cells: HEK ts201 cells
T1 sequence (P43681 29-627 limits assumed): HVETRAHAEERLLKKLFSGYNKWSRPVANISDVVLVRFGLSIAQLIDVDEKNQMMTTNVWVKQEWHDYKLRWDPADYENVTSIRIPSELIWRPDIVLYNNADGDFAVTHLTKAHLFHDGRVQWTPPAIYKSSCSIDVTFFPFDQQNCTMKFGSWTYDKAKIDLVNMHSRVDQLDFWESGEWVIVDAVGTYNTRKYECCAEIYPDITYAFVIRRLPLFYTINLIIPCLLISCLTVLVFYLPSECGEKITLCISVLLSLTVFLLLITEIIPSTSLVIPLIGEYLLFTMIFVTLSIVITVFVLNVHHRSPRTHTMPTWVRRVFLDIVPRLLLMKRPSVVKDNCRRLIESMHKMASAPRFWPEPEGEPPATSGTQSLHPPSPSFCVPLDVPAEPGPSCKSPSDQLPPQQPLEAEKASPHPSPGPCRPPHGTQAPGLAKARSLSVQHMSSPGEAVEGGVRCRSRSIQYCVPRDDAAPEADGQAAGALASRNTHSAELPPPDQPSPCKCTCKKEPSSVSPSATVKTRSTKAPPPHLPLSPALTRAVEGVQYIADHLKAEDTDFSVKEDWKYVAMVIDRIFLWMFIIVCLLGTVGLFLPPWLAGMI
T1 sequence (P17787 26-502): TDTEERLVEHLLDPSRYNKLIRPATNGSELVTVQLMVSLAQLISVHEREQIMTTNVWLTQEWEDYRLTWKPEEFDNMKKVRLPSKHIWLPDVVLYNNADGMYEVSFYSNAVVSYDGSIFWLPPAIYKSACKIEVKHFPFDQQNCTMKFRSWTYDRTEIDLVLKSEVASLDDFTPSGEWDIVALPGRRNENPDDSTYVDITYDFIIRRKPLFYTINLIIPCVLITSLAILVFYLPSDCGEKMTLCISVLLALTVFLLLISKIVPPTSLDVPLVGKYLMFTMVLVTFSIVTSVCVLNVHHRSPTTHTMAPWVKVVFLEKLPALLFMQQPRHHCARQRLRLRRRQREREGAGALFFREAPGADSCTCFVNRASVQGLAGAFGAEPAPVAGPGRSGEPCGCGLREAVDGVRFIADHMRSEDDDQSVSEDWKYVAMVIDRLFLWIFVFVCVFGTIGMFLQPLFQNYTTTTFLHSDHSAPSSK
Experimental: (§1) Calcium accumulation assays were performed as described previously with slight modifications. Briefly, HEK ts201 cells, transiently expressing hα4β2WT nAChRs or hα4β2M nAChRs, were plated on 96-well plates at a density of 2.6×10^5 cells per well. Twenty-four hours after plating, the cells were washed and then incubated with fluo-4-AM for 30 minutes at 37°C followed by 30 minutes at 24°C. After incubation, cells were washed and fluorescence was measured at ∼0.7 second intervals using a fluid handling integrated fluorescence plate reader (Flex Station, Molecular Devices, Sunnyvale, CA). […] Functional responses were quantified by first calculating the net fluorescence changes (the difference between control sham-treated and control agonist-treated groups). […] Results were calculated from the number of observations (n) performed in triplicate. Curve fitting was performed by Prism software (GraphPad, San Diego, CA). EC50 values, IC50 values, and Hill coefficients were obtained by averaging values generated from each individual concentration-response curve. EC50 values and IC50 values were expressed as geometric means (95% confidence limits). Experimental values were compared using the t-test (p<0.005), as indicated.
(§2) Human nAChR α4 and β2 full-length cDNAs in the vector pSP64 (poly A) were obtained from Dr. Jon Lindstrom (University of Pennsylvania) and used as the template for mutagenesis (β2) and for transient expression (α4 and β2). A single mutation was made in the β2 subunit using the Quik Change Lightning Multi Site-Directed Mutagenesis Kit (Stratagene) following the manufacturers instructions. Primers were designed using the QuikChange Primer Design Program (Stratagene) and Oligo 4.0 (National Biosciences) and synthesized by Invitrogen. Primers were designed to replace the threonine residue at position 58 in the hβ2 subunit with a lysine found at the similar position in the hβ4 subunit. The following primer was designed to change the threonine (ACC) at position 58 in the β2 subunit to lysine (AAG): β2 mutant 5′-[…]-3′. The underlined nucleotides defined the mutation. Primers were also designed to replace the phenylalanine residue at position 118 in the hβ2 subunit with a leucine found at the similar position in the hβ4 subunit. The following primer was designed to change the phenylalanine (TTC) at position 118 in the β2 subunit to leucine (TTG): 5′-[…]-3′ and 5′- […]-3′. […] The mutant hβ2 cDNAs were subcloned into pcDNA 3.1+Zeo (Invitrogen). The wild type hα4 and hβ2 cDNAs were also subcloned into the pcDNA 3.1+ and pcDNA 3.1+ Zeo vectors respectively. All cDNA clones were completely sequenced using a 3730 DNA Analyzer (Applied Biosystems) at the Ohio State University Plant-Microbe Genomics Facility. DNAs used for transfection were purified using PureLink High Pure Mini or Midi Kits (Invitrogen). HEK ts201 cells (kind gift of Dr. Rene Anand, Ohio State University Department of Pharmacology) were transiently transfected with wild-type hα4 mutant hβ2 or wild-type hα4β2 cDNAs using Lipofectamine 2000 (Invitrogen) in 60 mm dishes. After 8 hours, the cells were replated into 96 well dishes for the intracellular calcium accumulation assays.

hα4β2-T58K nAChRs = molecular target: T2, hα4β2-T58K nAChRs (Homo sapiens, UniProt P17787+P43681, T84K); assay: Calcium accumulation assay, HEK ts201 cells transiently expressing hα4β2 β2-T58K mutant nAChRs; format: cell-based
T2 construct: Human nAChR α4 and β2 full-length cDNAs in the vector pSP64 (poly A); expressed in transfected cells; host or cells: HEK ts201 cells
T2 sequence (P43681 27-627, stated change not applied): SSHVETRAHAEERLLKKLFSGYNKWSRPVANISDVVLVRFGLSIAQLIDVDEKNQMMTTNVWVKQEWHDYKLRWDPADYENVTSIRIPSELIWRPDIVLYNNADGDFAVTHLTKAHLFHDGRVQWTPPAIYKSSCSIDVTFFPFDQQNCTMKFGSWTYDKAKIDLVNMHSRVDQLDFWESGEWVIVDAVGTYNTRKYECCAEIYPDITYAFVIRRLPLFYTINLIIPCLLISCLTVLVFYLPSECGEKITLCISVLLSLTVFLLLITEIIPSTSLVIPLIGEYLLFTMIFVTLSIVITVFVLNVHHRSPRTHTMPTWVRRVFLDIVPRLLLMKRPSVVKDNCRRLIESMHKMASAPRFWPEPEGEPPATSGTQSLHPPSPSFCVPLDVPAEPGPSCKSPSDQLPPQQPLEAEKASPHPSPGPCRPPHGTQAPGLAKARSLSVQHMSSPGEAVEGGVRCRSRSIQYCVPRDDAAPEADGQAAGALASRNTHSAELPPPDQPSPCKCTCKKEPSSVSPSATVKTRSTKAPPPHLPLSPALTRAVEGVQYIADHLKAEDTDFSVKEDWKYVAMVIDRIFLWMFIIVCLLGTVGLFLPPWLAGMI
T2 sequence (P17787 26-502 T84K): as the sequence (P17787 26-502) above, with T59K counted along it
Experimental: as §1, §2

hα4β2-F118L nAChRs = molecular target: T3, hα4β2-F118L nAChRs (Homo sapiens, UniProt P17787+P43681, F144L); assay: Calcium accumulation assay, HEK ts201 cells transiently expressing hα4β2 β2-F118L mutant nAChRs; format: cell-based
T3 construct: Human nAChR α4 and β2 full-length cDNAs in the vector pSP64 (poly A); expressed in transfected cells; host or cells: HEK ts201 cells
T3 sequence (P43681 27-627, stated change not applied): as the sequence (P43681 27-627, stated change not applied) above
T3 sequence (P17787 26-502 F144L): as the sequence (P17787 26-502) above, with F119L counted along it
Experimental: as §1, §2

[3] = Solubility limit in functional assay; format: physicochemical; settings: read-out: highest soluble test concentration
human α3β4 nAChRs = settings: tested at concentrations up to 100 µM; cited from earlier work
hα4β2 nAChRs = settings: introduction, low µM range; cited from earlier work

Row | SMILES | EC50 ([1]; hα4β2) [µM] | EC50 ([2]; hα3β4) [µM] | IC50 (hα4β2-F118L nAChRs) [µM] | n H, Hill coefficient (hα4β2WT nAChRs; hα4β2-WT nAChRs) | IC50 (hα4β2WT nAChRs; read-out: IC50) [µM] | n H, Hill coefficient (hα4β2-T58K nAChRs; hα4β2-T58K nAChRs) | IC50 (hα4β2-T58K nAChRs; read-out: IC50) [µM] | n H, Hill coefficient (hα4β2-F118L nAChRs; hα4β2-F118L nAChRs) | other results
1 | CC(=O)OCC[N+](C)(C)C [acetylcholine] | 100 | 203 |  |  |  |  |  |  | 
2 | COc1cc2c3cc1Oc1cc(ccc1O)C[C@@H]1c4c(cc(OC)c(O)c4Oc4ccc(cc4)C[C@@H]3N(C)CC2)CC[N+]1(C)C [d-tubocurarine] |  |  | 6.5 |  |  |  |  |  | IC50 (hα4β2WT nAChRs): 6.3 µM; n H, Hill coefficient (hα4β2WT nAChRs): −1.0; IC50 (hα4β2-T58K nAChRs): 6.2 µM; n H, Hill coefficient (hα4β2-T58K nAChRs): −0.6; n H, Hill coefficient (hα4β2-F118L nAChRs): −0.9
3 | CNC1(C)C2CCC(C2)C1(C)C (stereo not shown) [mecamylamine] |  |  |  | −1.4 | 0.2 | −0.6 | 0.2 | −1.1 | IC50 (hα4β2-F118L nAChRs; read-out: IC50): 0.4 µM
4 | O=C(OCC1CCCN(CCCc2ccccc2)C1)c1ccccc1-c1ccccc1 (stereo not shown) [KAB-18] |  |  | > 100 | −1.2 | 8.5 | −1.0 | 71.8 |  | decrease in potency, β2T58K mutant vs wild-type (hα4β2-T58K nAChRs; ratio of IC50 71.8 µM (T58K) to 8.5 µM (WT)): eight-fold decrease; inhibitory activity on F118L mutant (hα4β2-F118L nAChRs; at concentrations up to 100 µM): loss of inhibitory activity; solubility [3]: ≤ 100 µM; functional activity on human α3β4 nAChRs (human α3β4 nAChRs): no functional activity; potency (inhibition of hα4β2 nAChRs) (hα4β2 nAChRs): 10 µM
5 | CN1CCC[C@H]1c1cccnc1 [nicotine] |  |  |  |  |  |  |  |  | EC50 [1]: 3.5 µM; EC50 [2]: 40.3 µM
6 | Clc1ccc(C2CC3CCC2N3)cn1 (stereo not shown) [epibatidine] | 0.043 | 0.151 |  | 0.9 |  | 0.7 |  | 0.8 | 
